From paper PMC7090077, “Developing a highly efficient hydroxytyrosol whole-cell catalyst by de-bottlenecking rate-limiting steps” (Nature Communications, 2020)
pEC50, pKd: −log10 of the molar value.

Columns and labels:
HpaBC = target: T1, HpaBC (Escherichia coli, UniProt Q57160); assay: specific activity, product formation by HPLC; format: biochemical; settings: wild-type
T1 construct: gene hpaB; HpaB and HpaC purified on Ni-NTA; two-component flavin-dependent monooxygenase; with 4-hydroxyphenylacetate 3-monooxygenase reductase component
T1 sequence (Q57160 1-520): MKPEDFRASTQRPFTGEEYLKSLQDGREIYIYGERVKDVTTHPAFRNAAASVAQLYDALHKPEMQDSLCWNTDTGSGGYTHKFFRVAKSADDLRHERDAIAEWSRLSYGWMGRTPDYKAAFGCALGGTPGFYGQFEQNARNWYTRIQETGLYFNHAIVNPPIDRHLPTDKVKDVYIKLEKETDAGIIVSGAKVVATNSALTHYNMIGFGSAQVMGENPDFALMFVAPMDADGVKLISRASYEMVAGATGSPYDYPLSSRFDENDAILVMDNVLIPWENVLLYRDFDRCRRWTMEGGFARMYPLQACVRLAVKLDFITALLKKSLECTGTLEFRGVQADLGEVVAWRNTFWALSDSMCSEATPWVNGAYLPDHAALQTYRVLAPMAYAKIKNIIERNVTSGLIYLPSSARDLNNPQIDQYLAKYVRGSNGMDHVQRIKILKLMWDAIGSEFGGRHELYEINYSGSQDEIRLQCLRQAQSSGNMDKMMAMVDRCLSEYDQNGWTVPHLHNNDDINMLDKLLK

VanR [1] = target: T2, VanR (Corynebacterium glutamicum, UniProt Q8NN31, R148L/Y103L/Y168M); assay: RFP reporter induction in E. coli BW25113 with plasmid pVanR; format: cell-based
T2 construct: gene Cgl2382; full length; GST fusion from pGEX-6p-1 in E. coli BL21(DE3), GST tag cleaved with PreScission protease; homodimer, ligand pocket at subunit interface

VanR [2] = target: T3, VanR (Corynebacterium glutamicum, UniProt Q8NN31); assay: isothermal titration calorimetry; format: binding
T3 construct: gene Cgl2382; full length; GST fusion from pGEX-6p-1 in E. coli BL21(DE3), GST tag cleaved with PreScission protease; homodimer, ligand pocket at subunit interface
T3 sequence (Q8NN31 entry or part of it): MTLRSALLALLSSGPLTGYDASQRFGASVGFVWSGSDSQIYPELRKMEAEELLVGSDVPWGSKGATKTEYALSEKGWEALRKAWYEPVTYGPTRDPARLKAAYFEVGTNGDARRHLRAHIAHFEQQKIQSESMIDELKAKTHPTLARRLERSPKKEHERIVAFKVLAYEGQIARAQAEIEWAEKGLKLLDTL

T2 sequence (Q8NN31 entry or part of it Y103L/R148L/Y168M): as the sequence (Q8NN31 entry or part of it) above, with Y103L, R148L, Y168M counted along it

**Q.** How did the specific activity (HpaBC) turn out when `O=C(O)Cc1ccc(O)cc1` [4-hydroxyphenylacetate] was run?
**A.** the hydroxylation activity of these HpaBC mutants on the original substrate 4-HPA reduced considerably

**Q.** `OCCc1ccc(O)c(O)c1` [hydroxytyrosol] was tested. Which pEC50 (VanR [1]) did it give?
**A.** ~3.30

**Q.** How did the pKd (VanR [2]) turn out when `COc1cc(C(=O)O)ccc1O` [vanillic acid] was run?
**A.** 5.16
